Laboratory results: patent US20200037588A1, “METHODS OF A DROSOPHILA MODEL FOR CHRONIC MYELOID LEUKEMIA (CML) TREATMENT” (American University of Beirut, priority 2018, published 2020)
Read-outs that look alike come from different tables or passages of the source.

Legend:
[1] = test system: GMR-GAL4>w1118 control flies; test: Eye development of control flies fed TKI (SEM)
[2] = test system: GMR-GAL4>w1118 control flies; settings: in vivo
[3] = test system: BCR-ABL1; settings: cited from earlier work

Row | eye development in control flies fed drug (in words) [1] | eye development in control flies fed drug (in words) [2] | Compound | potency for BCR-AB1L inhibition in vitro compared to imatinib [3]
1 | Normal development | – | Cc1ccc(C(=O)Nc2ccc(CN3CCN(C)CC3)c(C(F)(F)F)c2)cc1C#Cc1cnc2cccnn12 [ponatinib] | –
2 | – | Normal development | Cc1nc(Nc2ncc(C(=O)Nc3c(C)cccc3Cl)s2)cc(N2CCN(CCO)CC2)n1 [dasatinib] | –
3 | – | Normal development | Cc1ccc(NC(=O)c2ccc(CN3CCN(C)CC3)cc2)cc1Nc1nccc(-c2cccnc2)n1 [imatinib] | –
4 | – | Normal development | Cc1cn(-c2cc(NC(=O)c3ccc(C)c(Nc4nccc(-c5cccnc5)n4)c3)cc(C(F)(F)F)c2)cn1 [nilotinib] | 20 fold
